Assay [1] concerns the target T1, human D1 dopamine receptor (clone HGR213-1) (Homo sapiens, UniProt P21728). Type of assay: binding. Also on record: expressed in transfected cells; host or cells: monkey kidney COS-7 cells, transient, PBC12BI. Particulars: FIG. 4 competition curves.
Assay [2] concerns the target T2, human D1 dopamine receptor (clone HGL26) (Homo sapiens, UniProt P21728). Put plainly: Competition for [^125 I]SCH23982 binding to membranes of COS-7 cells expressing HGL26. The arrangement: a 2.3 kb EcoRI-XbaI restriction fragment containing the open reading frame was subcloned into the expression vector pCMV5; expressed in transfected cells; host or cells: African green monkey kidney COS-7 cells, transient, pCMV5.

Assay [3] addresses T2, human D1 dopamine receptor (clone HGL26). Put plainly: Adenylyl cyclase activity in membranes of mouse fibroblasts [L-M(TK^-)] expressing HGL26. Particulars: for block of dopamine-stimulated adenylyl cyclase activity: dopamine 100 μM, SCH23390 and raclopride 1 μM each. Type of assay: biochemical.
For assay [4], the target named is T1, human D1 dopamine receptor (clone HGR213-1). The assay is described as follows: cAMP accumulation in human embryonic kidney 293 cells transfected with HGR213-1. In general terms: cAMP levels reflect the balance of adenylyl cyclase and phosphodiesterase activity.
Assay [5] concerns α1-adrenergic receptor. Particulars: α1-adrenergic receptor-transfected COS-7 cells; data not shown.
The target of assay [6] is T2, human D1 dopamine receptor (clone HGL26). Put plainly: Saturation binding of [^125 I]SCH23982 to membranes of COS-7 cells expressing HGL26. Also on record: a 2.3 kb EcoRI-XbaI restriction fragment containing the open reading frame was subcloned into the expression vector pCMV5; expressed in transfected cells; host or cells: African green monkey kidney COS-7 cells, transient, pCMV5. The settings on record: transfected COS-7 membranes vs antisense construct. On the procedure: To identify the protein encoded by genomic clone HGL26, a 2.3 kb EcoRI-XbaI restriction fragment containing the open reading frame was subcloned into the expression vector pCMV5 and transiently transfected into African green monkey kidney (COS-7) cells. See Andersson, S. et al., J. Biol. Chem. 264, 8222-8229 (1989). The DEAE-dextran method was used for transient transfection of COS-7 cells. See Cullen, B. Meth. Enzymol. 152, 684-704 (1987). After 48 hours, transfected cells were lysed and homogenized in ice-cold lysis buffer (10 mM Tris HCl, pH 7.4, 5 mM EDTA). The homogenate was centrifuged at 43,000 g for 30 min at 4° C. The resulting pellet was resuspended in lysis buffer, re-homogenized, and re-centrifuged. This pellet was resuspended in an assay buffer containing 50 mM Tris HCl, pH 7.4, 100 mM NaCl, 5 mM EDTA.
See Sidhu, A. et al., J. Eur. J. Pharmacol. 128, 213-220 (1986).

Assay [7] relates to untransfected COS-7 cells. The assay is described as follows: Specific binding of [^3 H]SCH23390 to untransfected COS-7 cells. The settings on record: data not shown. Also on record: species or system monkey. On the procedure:
Membranes were prepared by homogenizing cells with a ConTorque homogenizer at 4° C. in TEM buffer. The homogenate was centrifuged at 800 g for 10 min and the pellet was subjected to a second homogenization and centrifugation. Supernatants were pooled and centrifuged at 100,000 g for 1 h. The pellet was then resuspended in TEM buffer at appropriate protein concentration and stored in small aliquots at -70° C. […] Binding was initiated by the addition of membrane preparation (20-30 μg protein) and carried on at 30° C. for 1 h. Nonspecific binding was defined in the presence of 10 μM (+)Butaclamol. The samples were filtered through glass fiber filters (Schleicher and Schuell No.32) and washed three times with 4 ml ice-cold 10 mM Tris pH 7.4. The radioactivity retained on the filter was counted using a Beckman LS6800 scintillation counter. […] See J. Bunzow et al., Nature 336,783 (1988). […] A LIGAND computer program was used for data analysis and curve fitting.

[8] abbreviates: ~0.3 nM [^125 I]SCH23982, 1 hr, room temperature, means of 2-5 independent determinations, one-site model, read-out: Kd (apparent equilibrium dissociation constant) for [^125 I]SCH23982 binding sites.

Entries after “also recorded” stand apart in the source; their conditions may differ. Where two headings read alike, the source gives them in different places.

T1 sequence (P21728 whole entry, the tested form may be a part): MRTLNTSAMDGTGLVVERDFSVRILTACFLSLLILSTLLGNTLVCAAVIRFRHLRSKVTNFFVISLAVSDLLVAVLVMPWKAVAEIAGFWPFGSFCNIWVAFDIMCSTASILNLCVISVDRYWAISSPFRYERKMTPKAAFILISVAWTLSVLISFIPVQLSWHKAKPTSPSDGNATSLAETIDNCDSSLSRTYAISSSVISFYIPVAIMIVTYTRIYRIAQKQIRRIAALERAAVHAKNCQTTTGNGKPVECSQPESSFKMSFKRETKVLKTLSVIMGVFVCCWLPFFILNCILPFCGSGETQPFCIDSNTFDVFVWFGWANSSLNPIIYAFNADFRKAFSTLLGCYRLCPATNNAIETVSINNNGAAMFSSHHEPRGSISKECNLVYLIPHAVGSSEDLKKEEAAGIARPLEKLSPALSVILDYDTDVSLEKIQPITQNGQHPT
T2 sequence (P21728 whole entry, the tested form may be a part): as above

As to `OCCN1CCN(CC/C=C2/c3ccccc3Sc3ccc(C(F)(F)F)cc32)CC1` [cis-flupenthixol], in assay [1], the “rank order of ligand potency” value is on record as “SCH23390<(+)Butaclamol>Flupenthixol>>Haloperidol”. For the molecule `C=CCc1ccccc1OCC(O)CNC(C)C` (stereo not drawn) [alprenolol], in assay [2], the Kd worked out at 16000 nM.

Regarding `Oc1cc2c(cc1O)C(c1ccccc1)CNCC2` (stereo not drawn) [SKF38393], the “stimulation of adenylyl cyclase activity (in words)” value in assay [3] (SKF38393 and quinpirole, 1 μM each) is recorded as “also stimulated enzyme activity”.

Turning to `CN1CCc2cc(Cl)c(O)cc2[C@@H](c2ccccc2)C1` [SCH23390], in assay [1], the “potency in competition with [^3 H]SCH23390 (in words)” value was “most potent” and the “rank order of ligand potency” value is “SCH23390<(+)Butaclamol>Flupenthixol>>Haloperidol”. The “antagonism of agonist-stimulated cAMP production” value in assay [4] was “blocked; also recorded: antagonized”. The “block of dopamine-stimulated adenylyl cyclase activity” value in assay [3] was “blocked”. `Oc1ccc(C2CNCCc3c2cc(O)c(O)c3Cl)cc1` (stereo not drawn) [SKF82526]: the “potency in competition with [^3 H]SCH23390 (in words)” value in assay [1] is listed as “most potent”. With `CNC[C@H](O)c1ccc(O)c(O)c1` [epinephrine], the “stimulation of phosphatidylinositol (PI) metabolism” value in assay [5] is reported as “potently evoked this response”. In the case of `CN1CCc2cc([125I])c(O)cc2[C@@H](c2ccccc2)C1` [[^125 I]SCH23982], the “increase in specific binding compared to cells transfected with an antisense construct” value in assay [6] is reported as 10- to 30 fold. Turning to `CCN1CCC[C@H]1CNC(=O)c1c(O)c(Cl)cc(Cl)c1OC` (racemic) [raclopride], the Kd in assay [2] (setting [8]) was over 72000 nM. Further, in assay [3], the “block of dopamine-stimulated adenylyl cyclase activity” value was “not by the D2 antagonist raclopride”.

Turning to `CN1CCc2cc(Cl)c(O)cc2C(c2ccccc2)C1` (stereo not drawn) [[^3 H]SCH23390], the “specific binding to untransfected cells” value in assay [7] is listed as “no specific binding”.

In assay [2], `O=C(CCCN1CCC2(CC1)C(=O)NCN2c1ccccc1)c1ccc(F)cc1` [spiperone] came in with a Kd of 220 nM. On to `OCCC1CCN(CC/C=C2/c3ccc(F)cc3Sc3ccc(C(F)(F)F)cc32)CC1` [cis-piflutixol], for which the Kd in assay [2] (setting [8]) came out at 0.2 nM.
